Where no end group is shown, it is not given here.
Assays:
p53^+/− mice = assay: TauT-peptide vaccination of p53+/− mice: tumor development and lifespan; type: in vivo
Protocol: FIG. 2A and FIG. 2B. TauT-peptide vaccination prolongs p53^+/− mice lifespan. To evaluate the efficacy of TauT-peptide as a cancer vaccine, p53^+/− (C57BL/6J background) were injected with either TauT-peptide (100 μg/kg) or vehicle only at the age of 4 weeks and boosted 2 weeks later (n=15 for each group). All mice were observed daily for signs of morbidity and the development of tumors. The p53^+/− control mice started to develop tumor (mainly osteosarcoma) at the age of 186 day (FIG. 2A). The median lifespan for p53^+/− control mice was 315 days (FIG. 2B), which consistent with other studies. […] TauT-peptide vaccination delayed tumor develops in all vaccinated p53^+/− mice, which started to develop tumor (mainly osteosarcoma) and died at the age of 526 days (FIG. 2A).
TauT-peptide (SEQ ID NO 3) was coupled to KLH with a kit (Imject SuperCarrier EDC system for Peptides; Pierce). To test TauT-peptide vaccine, p53 knockout (KO) mice were immunized with 100 μg/kg and boosted with an equal amount of antigen 2 weeks late. To develop and test TauT-Ab, wild type control mice were immunized with 100 μg/kg TauT-peptide and boosted with an equal amount of antigen 2 weeks late. Mice were bled on Days 21 and 36 to measure the antibody response. Antisera were collected on Day 49 and purified by affinity column chromatography (Pierce). Antisera were stored at −80° C. Specificity of the antibody was determined by Western blot analysis (10).

p53^−/− mice = assay: TauT-peptide vaccination of p53−/− mice: tumor development and lifespan; type: in vivo
Protocol: To evaluate the efficacy of TauT-peptide as a cancer vaccine, p53^−/− (C57BL/6J background) were injected with either TauT-peptide (100 μg/kg) or vehicle only at the age of 4 weeks and boosted 2 weeks later (n=12 for each group). All mice were observed daily for signs of morbidity and the development of tumors.
To test TauT-peptide vaccine, p53 knockout (KO) mice were immunized with 100 μg/kg and boosted with an equal amount of antigen 2 weeks late. […] Mice were bled on Days 21 and 36 to measure the antibody response.
To evaluate the efficacy of TauT-peptide as a cancer vaccine, p53 null (C57BL/6J background) were injected with either TauT-peptide (100 μg/kg) or vehicle only at the age of 4 weeks and boosted 2 weeks later (n=12 for each group). All mice were observed daily for signs of morbidity and the development of tumors.

[1] = p53+/− mice, 100 μg/kg at 4 weeks of age, boosted 2 weeks later, n=15
[2] = p53−/− mice, 100 μg/kg at 4 weeks of age, boosted 2 weeks later
[3] = p53−/− mice, 100 μg/kg at 4 weeks of age, boosted 2 weeks later, n=12

For “TauT-peptide vaccine: TauT-peptide (SEQ ID NO 3) comprising amino acid residues 313-326 of TauT (SLC6A6), coupled to KLH, used as peptide vaccine (GSYNKYKYNSYRDC; also: coupled to KLH carrier, site not given here)”, the “response to the vaccine” value (p53^+/− mice; p53+/− mice vaccinated) was 100%, the “age at which mice started to develop tumor (mainly osteosarcoma) and died” value (p53^+/− mice; [1]) was 526 days and the median lifespan (p53^+/− mice; [1]) was 621 days. The “response to the vaccine” value (p53^−/− mice; p53−/− mice vaccinated) was 100%, the “age at which mice started to develop tumor (mainly lymphoma) and died” value (p53^−/− mice; [2]) was 6.3 months and the lifespan (p53^−/− mice; [2]) was 6.9 months. For the same substance, the “age at which mice started to develop tumor (mainly lymphoma)” value (p53^−/− mice; [3]) was 189 days, the median lifespan (p53^−/− mice; [3]) was 207 days and the “increase of (median) lifespan versus control” value (p53^−/− mice; p53−/− mice, vaccinated vs vehicle control) was 1.5 fold.
